From patent publication US7199150B2, “Amino alcohol compounds” (Sankyo Company, Limited, priority 2002, dated 2007)

What was measured:
[1] = test system: Mice GvHD (Graft Versus Host Disease); assay: Inhibitory activities against mice GvHD (Test Example 4); format: in vivo, BDF1 mice; settings: oral 10 ml/kg once daily for 10 successive days; suspensions: cyclosporin A 0.1 mg/10 ml, tacrolimus 0.2 mg/10 ml, Compound B 0.01 mg/10 ml; spleen weight compensated for body weight
Description: Determination of Inhibitory Activities of Compounds against Mice GvHD (Graft Versus Host Disease) (1) Two strains of mice. [BDF1 mice (male, 6 weeks of age, Charles River Japan Inc.) and C57BL/6 mice (male, 7 weeks of age, Charles River Japan Inc.)] were used. Five mice/group (hosts) were used. (2) Induction of GvHD Spleen cells were isolated from the spleens of C57BL/6 mice or BDF1 mice and floated in RPMI1640 medium (Life Technologies Inc.) at a concentration of 2×10^7 cells/ml. 0.5 ml of the medium containing the free-floating spleen cells of C57BL/6 mice) was intravenously injected into the tail vein of BDF1 mice (GvHD induction group) and the same volume of the medium containing free-floating spleen cells of BDF1 mice was intravenously injected into the tail vein of BDF1 mice (the “same strain group”). (3) Administration of Compounds […] Body weight was determined and spleens were weighed, and “spleen weight compensated for the body weight following injection of GvHD” was calculated by dividing the spleen weight by the body weight. […] The inhibitory activities of compounds were calculated from the ratios of individual “spleen weight compensated for body weight following injection of GvHD” to the average “spleen weight compensated for body weight following injection of GvHD” in the control group.

[2] = test system: Adjuvant-Induced Arthritis; assay: Inhibitory activities against adjuvant-induced arthritis (Test Example 2); format: in vivo, rats (usually Lewis rats); settings: oral, once daily for 21 successive days; foot swelling volume one day after final administration
Description: Determination of Inhibitory Activities of Compounds against Adjuvant-Induced Arthritis
(1) Preparation of Adjuvant
Adjuvant was prepared by suspension of killed Mycobacterium butyricum in mineral oil at a concentration of 2 mg/ml, followed by application of ultrasonic waves.
(2) Preparation of Test Compound
Test compounds were suspended or dissolved in 0.5% tragacanth solution.
(3) Induction of Adjuvant Arthritis
0.05 ml of adjuvant solution prepared as described in (1) was intracutaneously injected into the right foot-pad of rats (usually Lewis rats). Five rats/group were usually used. Adjuvant was not injected in one group of rats (normal group).
(4) Administration of Compound
Compounds prepared as described in (2) were orally administered to rats at a volume of 5 ml/kg once daily for 21 successive days. 0.5% tragacanth solution was similarly administered to rats in one group injected adjuvant (control group) and a group not injected adjuvant.
(5) Calculation of Inhibitory Activities of Compounds against Adjuvant Arthritis
One day after the final drug administration, the foot volume of each rat was measured by an apparatus for determination of the volume. The average value in normal rats was subtracted from the individual values in the drug-treated and control groups. The difference was expressed as the swelling volume. Inhibitory rate of the compound was calculated from the ratio of the individual swelling volume of the rat treated with the compound to the average swelling volume in the control group.
Inhibitory activities of compounds were expressed as ID50 values (mg/kg) calculated by least squares method based on the doses of the compound and their inhibitory ratios.

[3] = test system: Host Versus Graft Reaction in Rats; assay: Inhibitory activities against host versus graft reaction (HvGR) in rats (Test Example 1); format: in vivo; settings: oral, once daily for 4 successive days; HvGR-induced change in popliteal lymph node weight; Lewis rats injected with WKAH/Hkm spleen cells
Description: Determination of Inhibitory Activities of Compounds against Host Versus Graft Reaction in Rats
(1) Two strains of rats [Lewis rats (male, 6 weeks of age, Charles River Japan Inc.) and WKAH/Hkm rats (male, 7 weeks of age, Japan SLC Inc.) were used. Five rats/group were used.
Spleen cells were isolated from the spleens of WKAH/Hkm and Lewis rats and floated in RPMI1640 medium (Life Technologies Inc.) at a concentration of 1×10^8 cells/ml. 0.1 ml of the medium containing the free-floating spleen cells of WKAH/Hkm rats or Lewis rats (1×10^7 of the spleen cells) was then intracutaneously injected into the bilateral foot-pads of hindlimbs of Lewis rats.
(3) Administration of the Compounds
Compounds were suspended in 0.5% tragacanth solution. The suspended compounds were orally administered to rats in the drug-treated group (Lewis rats injected with spleen cells of WKAH/Hkm rats and treated with the compound) at a volume of 5 ml/kg once daily for 4 successive days starting on the day of spleen cell injection. The tragacanth solution (0.5%) was orally administered, instead of the compound-suspended solution, to rats in the “same strain group” (Lewis rats injected with spleen cells of Lewis rats) and the control group (Lewis rats injected with spleen cells of WKAH/Hkm rats and not treated with the compound).
(4) Determination of Inhibitory Activities of Compounds against HvGR
Average weight of the popliteal lymph nodes of the same strain rats was subtracted from individual weights of the popliteal lymph nodes of individual rats (“HvGR-induced changes in weight of the popliteal lymph nodes”). The inhibitory activities of compounds were calculated from the “HvGR-induced changes in weights of the popliteal lymph nodes” of individual rats in the drug-treated group versus the average “HvGR-induced changes in weights of the popliteal lymph nodes” in the control group. The inhibitory activities of compounds were expressed as ID50 values (mg/kg) as calculated by least squares method based on the doses of compounds administered and inhibitory activities at these doses.

[4] = test system: Rejection Response against Skin Transplantation of Mice; assay: Inhibitory activities against rejection response against skin transplantation of mice (Test Example 5); format: in vivo; settings: oral 10 ml/kg once daily for 14 successive days from transplantation; suspensions: cyclosporin A 30 mg/10 ml, tacrolimus 3 mg/10 ml, Compound B 0.1 mg/10 ml; C57BL/6N skin on BALB/cAnN mice
Description: (1) Two strains of mice [C57BL/6N mice (female, 5 weeks of age, Charles River Japan Inc.) and BALB/cAnN mice (female, 5 weeks of age, Charles River Japan Inc.)] were used. Ten mice/group (transplanted individuals) were used.
C57BL/6N mice were sacrificed by cervical dislocation and their skins removed. The skins were cut to 8-mm diameter sizes by biopsy punch (MK706, 8 mm, Kai Industries Co., Ltd.). Next, 8 mm diameter sections of the back skins of BALB/cAnN mice anaesthetized with Avertin were removed by biopsy punch. The skin was cut along the edge of the damaged area by fine ophthalmic scissors. The previously cut skins of C57BL/6N mice were transplanted to the removed areas of the skin in BALB/cAnN mice. The transplanted areas were fixed with Aron Alpha (Sankyo Co., Ltd.). […]
On the 6th day after transplantation (the day of transplantation was defined as day 0), the Coban, SYLKYTEX, sterilized gauze, and Sofratulle were gently removed paying attention not to damage the skin by a pair of scissors. From the next day to 20 days after transplantation, it was determined whether rejection responses occurred in the transplanted skin. This determination was carried out blind, and the median day when the rejection response occurred was calculated.

[5] = test system: HvGR (Host Versus Graft Reaction) in Rats; assay: Inhibitory activities against HvGR in rats, combination with immunosuppressants (Test Example 3); format: in vivo, Lewis rats; settings: oral 5 ml/kg once daily for 4 successive days; suspensions: cyclosporin A 0.08 mg/5 ml, tacrolimus 0.08 mg/5 ml, Compound A 0.008 mg/5 ml; popliteal lymph node weight
Description: Determination of Inhibitory Activities of Compounds against HvGR (Host Versus Graft Reaction) in Rats (1) Two strains of rats (Lewis rats (male, 6 weeks of age, Charles River Japan Inc.) and […] (male, 7 weeks of age, Japan SLC Inc.) were used. Five rats/group were used. […] Spleen cells were isolated from the spleens of […] or Lewis rats and floated in RPMI1640 medium (Life Technologies Inc.) at a concentration of 1×10^8 cells/ml. 0.1 ml of the medium containing the free-floating spleen cells of […] or 0.1 ml of the medium containing the free-floating spleen cells of Lewis rats were intracutaneously injected into the bilateral foot-pads of hindlimbs of Lewis rats. (3) Administration of Compounds […] In both the “same strain group” (Lewis rats treated with spleen cells of Lewis rats but not with the compounds) and “control group” (Lewis rats treated with the spleen cells of […] but not with the compounds), 0.5% tragacanth solution was orally administered. […] The inhibitory activities of the compounds were calculated from the “HvGR-induced changes in the popliteal lymph node weights” of individual rats in drug-treated group versus the average “HvGR-induced changes in the popliteal lymph node weights” in the control group.

SMILES | GvHD Inhibitory Rate (%) [1] [%] | ID50 values [2] [mg/kg] | HvGR ID50 values [3] [mg/kg] | Median Day of Rejection Response [4] [days] | HvGR Inhibitory Rate (%) [5] [%]
Cl.Cn1c(CC[C@@](C)(N)CO)ccc1C(=O)CCCCc1ccccc1 [Example 33, (2R)-2-Amino-2-methyl-4-[1-methyl-5-(5-phenylpentanoyl)pyrrol-2-yl]butan-1-ol hydrochloride] | −2.9 | 0.0941 | 0.013 | 15.0 | –
C[C@](N)(CO)CCc1ccc(C#CCCOC2CCCCC2)o1.Cl [Example 20, (2R)-2-Amino-2-methyl-4-[5-(4-cyclohexyloxybut-1-ynyl)furan-2-yl]butan-1-ol hydrochloride] | – | 0.102 | 0.082 | – | –
C[C@](N)(CO)CCc1ccc(C#CCCOC2CCCCC2)o1.O=C(O)C(=O)O [Example 3, (2R)-2-Amino-2-methyl-4-[5-(4-cyclohexyloxybut-1-ynyl)furan-2-yl]butan-1-ol oxalate] | – | 0.0774 | 0.116 | – | –
Cn1c(C#CCCCc2ccccc2)ccc1CC[C@@](C)(N)CO.O=C(O)C(=O)O [Example 9, (2R)-2-Amino-2-methyl-4-[1-methyl-5-(5-phenylpent-1-ynyl)pyrrol-2-yl]butan-1-ol oxalate] | – | – | 0.120 | – | –
C=CCC1C=C(C)CC(C)CC(OC)C2OC(O)(C(=O)C(=O)N3CCCCC3C(=O)OC(C(C)=CC3CCC(O)C(OC)C3)C(C)C(O)CC1=O)C(C)CC2OC (stereo not shown) [Tacrolimus, 17-allyl-1,14-dihydroxy-12-[2-(4-hydroxy-3-methoxycyclohexyl)-1-methylvinyl]-23,25-dimethoxy-13,19,21,27-tetramethyl-11,28-dioxa-4-azatricyclo[22.3.1.0^4,9]octacos-18-ene-2,3,10,16-tetrone, reference compound] | 7.6 | – | – | 11.0 | 25.8
Cn1c(C#CCCOC2CCCCC2)ccc1CC[C@@](C)(N)CO.Cn1c(C#CCCOC2CCCCC2)ccc1CC[C@@](C)(N)CO.O=C(O)C(=O)O [Example 10, (2R)-2-Amino-2-methyl-4-[1-methyl-5-(4-cyclohexyloxybut-1-ynyl)pyrrol-2-yl]butan-1-ol ½-oxalate] | – | – | 0.276 | – | –
CC(N)(CO)CCc1ccc(C(=O)CCCCc2ccccc2)s1.O=C(O)/C=C\C(=O)O (stereo not shown) [Compound A, 2-amino-2-methyl-4-[5-(5-phenylpentanoyl]thiophen-2-yl]butan-1-ol maleate] | – | – | – | – | 16.0
C[C@](N)(CO)CCc1ccc(C#CCCCC2CCCCC2)o1.Cl [Example 19, (2R)-2-Amino-2-methyl-4-[5-(5-cyclohexylpent-1-ynyl)furan-2-yl]butan-1-ol hydrochloride] | – | 0.108 | 0.097 | – | –
C[C@](N)(CO)CCc1ccc(C#CCCCc2cccc(C(F)(F)F)c2)o1.O=C(O)C(=O)O [Example 15, (2R)-2-Amino-2-methyl-4-{5-[5-(3-trifluoromethylphenyl)pent-1-ynyl]furan-2-yl}butan-1-ol oxalate] | – | – | 0.304 | – | –
C[C@](N)(CO)CCc1ccc(C#CCCCC2CCCCC2)o1.O=C(O)C(=O)O [Example 2, (2R)-2-Amino-2-methyl-4-[5-(5-cyclohexylpent-1-ynyl)furan-2-yl]butan-1-ol oxalate] | – | 0.0899 | 0.714 | – | –
